Assay: Photosensitizer solubility test in 2-butanone and PGMEA
Format: physicochemical
Conditions: Test temperature 25° C.; for Solubility in 2-butanone: solvent 2-butanone
Excerpt: Among them, 9-phenylacridine (denoted as C7, produced by CHANGZHOU TRONLY NEW ELECTRONIC MATERIALS CO., LTD.) was used for comparison.

With `COCCOCCOCCOc1ccc(-c2c3ccccc3nc3ccccc23)cc1` [Product C1] the “Solubility in 2-butanone” value was 21.10 g.

For `c1ccc(-c2c3ccccc3nc3ccccc23)cc1` [Product C7, 9-phenylacridine], the “Solubility in 2-butanone” value was 0.74 g and the “Solubility in PGMEA” value (solvent PGMEA) was 0.51 g.

— US20230016182A1, “EO/PO-MODIFIED 9-PHENYLACRIDINE PHOTOSENSITIZERS AND APPLICATION THEREOF” (Changzhou Tronly New Electronic Materials Co., Ltd., priority 2019, published 2023)
